Measurements reported in PubChem BioAssay AID1159564 (GlaxoSmithKline (GSK), 2015).
Active and inactive are the calls of the source. No rule for the calls is given here.

Tested on: L. donovani-infected THP-1 macrophages, intracellular amastigote imaging
Assay: antileishmanial activity in infected THP-1 macrophages – imaging, THP-1 host macrophages, host toxicity (AID 1159564)
[1] = measured here: THP-1 host cell toxicity
[2] = measured here: amastigotes per macrophage

Row | SMILES | IC50 | IC50 [1] [µM] | IC50 [2] [µM]
1 | CN(Cc1ccc(F)cc1)c1ccc(OCC(=O)N2CCCCC2c2cccnc2)nn1 (stereo not given) | > 50 µM (inactive) | 32 | > 50
2 | Nc1nc(-c2ccccn2)nc(-n2nc(-c3cccc(C(F)(F)F)c3)cc2N)n1 | 0.79 µM | 5 | 0.5
3 | COc1ccc(Nc2nc(NC3CCC(O)CC3)ncc2Br)c(C(N)=O)c1 (stereo not given) | 1 µM | 0.4 | 0.63
4 | COc1ccc(NS(=O)(=O)c2cc(NC(=O)Cc3ccc(C)cc3)ccc2N2CCOCC2)cc1 | > 50 µM (inactive) | > 50 | > 50
5 | CC(C)COC(=O)Nc1ccc(N2CCC(CNS(=O)(=O)c3ccccc3)CC2)c(F)c1 | 2 µM | > 50 | 1.3
6 | CC(C)c1nn(-c2nc(N)nc(-c3ccccn3)n2)c(N)c1C1CCCCC1 | 1 µM | 5 | 0.79
7 | CCc1cccc(-n2nc(OCC(=O)NC3CCCC3)c3cccnc32)c1 | 1 µM | < 50 | 1.3
8 | O=[N+]([O-])c1ccc(C2=CC(c3ccccc3)=NCCN2)cc1 | 20 µM | 40 | 7.9
9 | Cc1nn(-c2nc(N)nc(-c3ccccn3)n2)c(C)c1Cc1ccccc1 | 3.2 µM | > 50 | 2.5
10 | CC1(C)CCC(=Cc2ccc(Cl)cc2)CC1(O)Cn1ccnc1 (stereo not given) | 7.9 µM | 13 | 2
11 | CNC(=O)C1Cc2ccccc2N1C(=O)Cc1ccccc1 (stereo not given) | > 50 µM (inactive) | > 50 | > 50
12 | COc1cc(F)c2ncc(F)c(CCN3CC[C@H](NCc4cc5c(cn4)OCS5)[C@@H](O)C3)c2c1 | 16 µM | 16 | 13
13 | CC(=Cc1ccccc1)CN1CCC(=O)N(Cc2cccnc2)CC1 | > 50 µM (inactive) | 40 | 32
14 | Cc1ccccc1NS(=O)(=O)c1ccc2[nH]cc(C(=O)NC3CCCCC3)c(=O)c2c1 | 40 µM | 32 | 40
15 | Cc1nc2nc(C)c(Cc3ccc(C(C)C)cc3)c(=O)n2[nH]1 | 32 µM | > 50 | 16
16 | Cc1nc(N2CCC(C(=O)N3CCC(O)(c4cccnc4)CC3)CC2)nc2ccc(C(C)C)cc12 | 50 µM | 25 | 10
17 | O=C(NCCc1ccccc1Cl)c1cccn1-c1cccnc1 | > 50 µM (inactive) | > 50 | > 50
18 | O=C(CC1(O)C(=O)N(Cc2cccs2)c2ccc(Br)cc21)c1cccnc1 (stereo not given) | > 50 µM (inactive) | 20 | > 50
19 | c1ccc(-c2nc(NC3CCCCC3)cc(C3CC3)n2)nc1 | 4 µM | 20 | 3.2
20 | CC(C)C[C@H](NC(=O)c1ccc(-c2ccccc2)o1)C(=O)NC1(C#N)CC1 | > 50 µM (inactive) | > 50 | 16
21 | Fc1ccccc1N1C[C@H]2CCN(c3cccnc3)C[C@H]2C1 | > 50 µM (inactive) | > 50 | –
22 | Cc1cc(NC(=O)CC2CCCCC2)n(-c2nc3c(c(=O)[nH]2)CCC3)n1 | 3.2 µM | 4 | 1.6
23 | CCC(=O)Nc1ccc(C(=O)Nc2ccccc2-c2ccccc2)cc1 | 20 µM | 16 | 25
24 | Oc1c(-c2n[nH]c(Cc3ccc(F)cc3)n2)ncc2cccnc12 | 1 µM | 20 | 1
25 | COc1ccc([N+](=O)[O-])cc1NC(=O)Nc1cccc(Cl)c1 | > 50 µM (inactive) | 50 | > 50
26 | CCOc1ccc(OCC(=O)N2c3ccccc3CC2C(=O)NC)cc1 (stereo not given) | > 50 µM (inactive) | > 50 | > 50
27 | O=C(c1cccc(Cl)c1Cl)N1CCn2c1nc(-c1ccncc1)cc2=O | > 50 µM (inactive) | > 50 | 32
